Assay results: PMC6075749 (PLoS ONE, 2018)
“And” between values parts separate entries of the source, which are not always exact repeats. Equal values may be shown once. “Also recorded” adds a separate entry of the source. Read-outs that look alike come from different tables or passages of the source.

Assays:
[1] = tested on: COc1ccc2c(CC(=O)N[C@@H](CCCNC(=N)N)C(=O)N3CCC[C@H]3C(=O)N3CCC[C@H]3C(=O)NCC(=O)N[C@@H](Cc3ccccc3)C(=O)N[C@@H](CO)C(=O)N[C@@H](C)C(=O)N[C@@H](Cc3ccccc3)C(=O)N[C@@H](CCCCNc3ccc([N+](=O)[O-])cc3[N+](=O)[O-])C(=O)O)cc(=O)oc2c1; assay: Initial rate fluorescence assay, auerolysin, substrate Mca-[…](Dnp)-OH (Km, Ki); type: biochemical, staphylococcus aureus; settings: other: low precision; Km far above highest usable substrate concentration (10 μM); pH 7.5; 37.0 °C
Procedure: (§1) To determine the kinetic and inhibitor kinetic coefficients Km, and Ki, initial rate experiments were performed using a Perkin Elmer LS 50 Luminescence spectrometer and the FL WinLab Software Package (Perkin Elmer). The reactions were followed for one minute and during that time 600 data points were collected. The excitation and emission wavelengths for the two fluorescence quenched MMP peptide substrates, McaPLGLDpaAR-NH2 and Mca-[…](Dpn)-OH were; λex = 320 nm, λem = 405 nm and a slit width = 10 nm at both wavelengths. All assays were performed at 37°C in an assay buffer of 0.1 M Hepes pH 7.5, 0.005% Brij-35, 10 mM CaCl2 and a total assay volume of 100 μl.
(§2) The Km value was calculated from non-linear regression of the Michaelis-Menten equation using the Enzyme kinetic module in GraphPad Prism 5.
(§3) A fixed substrate concentration of 5.0 μM and / or 10 μM and a fixed enzyme concentration along with varying concentrations of potential inhibitor were used to determine the inhibitory capacity of the two compounds. […] For a competitive inhibitor, the IC50 value equals Ki(1+[S]/Km). For tight binding competitive inhibitors (Ki ≤ [E]), the values of Ki and [E] were obtained by both a dose response plot (vi/v0 against [I]) using the Morrison equation [71] (2) and through the linear Henderson Plot (Eq 3). For tight binding inhibitors, the enzyme was pre-incubated for 15 min at 37°C in the presence of inhibitor and the reaction was started by the addition of substrate. Graph Pad Prism 5 was used to calculate Ki and [E] values.

[2] = tested on: COc1ccc2c(CC(=O)N[C@@H](CCCNC(=N)N)C(=O)N3CCC[C@H]3C(=O)N3CCC[C@H]3C(=O)NCC(=O)N[C@@H](Cc3ccccc3)C(=O)N[C@@H](CO)C(=O)N[C@@H](C)C(=O)N[C@@H](Cc3ccccc3)C(=O)N[C@@H](CCCCNc3ccc([N+](=O)[O-])cc3[N+](=O)[O-])C(=O)O)cc(=O)oc2c1; assay: purified protein, by the assay type; settings: pH 7.5, 37.0 °C
pseudolysin [3] = target: T1, pseudolysin (Pseudomonas aeruginosa, UniProt P14756); set-up: purchased Calbiochem (San Diego, CA, USA); settings: ref Grobelny D et al. [58]; cited from earlier work
[4] = tested on: MMP-14 (catalytic domain); settings: cited from earlier work
[5] = target: T2, recombinant human MMP-14 catalytic domain (Homo sapiens, UniProt P50281); assay: Initial rate fluorescence assay, MMP-14 catalytic domain, substrate Mca-PLGLDpaAR-NH2 (Km, Ki); type: biochemical
T2 construct: recombinant MMP-14 (catalytic domain) were from Calbiochem; purchased Calbiochem (San Diego, CA, USA)
Procedure: as §1, §2, §3

thermolysin [6] = target: T3, thermolysin (Bacillus thermoproteolyticus, UniProt P00800); set-up: purchased Calbiochem (San Diego, CA, USA); method as in Grobelny D et al. [58]; settings: ref Grobelny D et al. [58]; cited from earlier work
auerolysin = target: T4, auerolysin (Staphylococcus aureus, UniProt P81177); assay: Initial rate fluorescence assay, auerolysin, substrate Mca-[…](Dnp)-OH (Km, Ki); type: biochemical
T4 construct: purchased BioCentrum Ltd (Kraków, Poland)
Procedure: as §1, §2, §3

MMP-9 = settings: cited from earlier work
thermolysin [7] = target: T3, thermolysin; assay: Initial rate fluorescence assay, thermolysin, substrate Mca-RPPGFSAFK(Dnp)-OH (Km, inhibition); settings: N.I. = no inhibition up to 100 μM of inhibitor
Procedure: as §1, §2
(§4) A fixed substrate concentration of 5.0 μM and / or 10 μM and a fixed enzyme concentration along with varying concentrations of potential inhibitor were used to determine the inhibitory capacity of the two compounds. […] For a competitive inhibitor, the IC50 value equals Ki(1+[S]/Km). For tight binding competitive inhibitors (Ki ≤ [E]), the values of Ki and [E] were obtained by both a dose response plot (vi/v0 against [I]) using the Morrison equation [71] […]
(§5) The IC50 values were determined from a dose response plot vi/v0 vs log [Inhibitor] as described previously.

[8] = target: four forms of activated MMP-9 (Homo sapiens, UniProt P14780); assay: Ki across the four forms of activated MMP-9 (summary); type: biochemical; settings: ratio of Ki values, compound 1b vs galardin
Procedure: as §1, §3

pseudolysin [9] = target: T1, pseudolysin; assay: Initial rate fluorescence assay, pseudolysin, substrate Mca-RPPGFSAFK(Dnp)-OH (Km, inhibition); settings: N.I. = no inhibition up to 100 μM of inhibitor
Procedure: as §1, §2, §4, §5

T4 sequence (P81177 209-509): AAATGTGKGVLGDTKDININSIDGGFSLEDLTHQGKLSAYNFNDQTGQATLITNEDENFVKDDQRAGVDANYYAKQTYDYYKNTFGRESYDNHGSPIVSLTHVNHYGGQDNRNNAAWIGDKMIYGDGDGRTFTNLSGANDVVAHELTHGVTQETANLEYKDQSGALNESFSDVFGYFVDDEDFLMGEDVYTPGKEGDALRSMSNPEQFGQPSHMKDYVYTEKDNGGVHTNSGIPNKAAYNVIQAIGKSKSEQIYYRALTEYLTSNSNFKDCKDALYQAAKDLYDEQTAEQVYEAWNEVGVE
T3 sequence (P00800 233-548): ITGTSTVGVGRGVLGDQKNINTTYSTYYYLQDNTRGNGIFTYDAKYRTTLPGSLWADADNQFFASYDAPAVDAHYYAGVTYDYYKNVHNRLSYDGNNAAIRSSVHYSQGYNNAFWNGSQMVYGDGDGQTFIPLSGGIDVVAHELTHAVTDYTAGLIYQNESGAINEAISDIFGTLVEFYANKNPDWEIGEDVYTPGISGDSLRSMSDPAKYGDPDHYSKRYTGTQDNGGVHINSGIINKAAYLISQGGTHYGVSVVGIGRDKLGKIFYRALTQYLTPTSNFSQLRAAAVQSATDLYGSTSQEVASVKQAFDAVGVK
T1 sequence (P14756 198-498): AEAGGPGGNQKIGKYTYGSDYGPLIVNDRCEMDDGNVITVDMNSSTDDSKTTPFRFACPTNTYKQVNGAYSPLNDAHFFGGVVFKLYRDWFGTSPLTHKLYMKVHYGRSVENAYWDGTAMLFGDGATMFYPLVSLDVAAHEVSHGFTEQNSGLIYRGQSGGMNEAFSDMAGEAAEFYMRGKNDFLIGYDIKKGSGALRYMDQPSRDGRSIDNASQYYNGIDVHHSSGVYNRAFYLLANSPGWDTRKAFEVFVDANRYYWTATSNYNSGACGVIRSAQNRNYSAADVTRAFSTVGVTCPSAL
Chain of four forms of activated MMP-9 (P14780 107-508 limits assumed): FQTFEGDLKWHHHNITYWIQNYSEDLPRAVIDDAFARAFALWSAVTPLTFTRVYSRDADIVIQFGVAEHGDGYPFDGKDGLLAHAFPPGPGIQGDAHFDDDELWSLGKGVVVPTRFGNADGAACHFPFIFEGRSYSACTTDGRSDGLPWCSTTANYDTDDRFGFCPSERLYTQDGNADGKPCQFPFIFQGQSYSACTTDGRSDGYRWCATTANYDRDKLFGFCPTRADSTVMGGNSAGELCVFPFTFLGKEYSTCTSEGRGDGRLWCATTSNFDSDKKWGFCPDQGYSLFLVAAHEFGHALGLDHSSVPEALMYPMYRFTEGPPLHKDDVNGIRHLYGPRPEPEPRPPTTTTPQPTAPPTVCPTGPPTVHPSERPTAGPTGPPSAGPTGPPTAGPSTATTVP

Work on auerolysin (Staphylococcus aureus) yielded a Km [1] of 47 ± 41 µM.

“thermolysin (Bacillus thermoproteolyticus)” showed a Km ([2]; other: substrate 0.5 to 10.0 μM) of 6 ± 1 µM.

For `CNC(=O)[C@H](Cc1c[nH]c2ccccc12)NC(=O)[C@@H](CC(=O)NO)CC(C)C` [Galardin], the Ki (pseudolysin [3]) is given as 20 nM, the IC50 [4] is given as 13.4 nM and the Ki ([5]; Ki ± s.d. per experiment, [S] 5.0 μM, read-out: Ki, Morrison equation, individual experiment) is given as 0.95 nM and 0.78 nM and 0.82 nM and 0.91 nM and 0.89 nM. The Ki ([5]; Ki ± s.d. per experiment, [S] 5.0 or 10.0 μM, read-out: Ki, Henderson plot, individual experiment) was 0.78 nM (2×) and 0.86 nM and 0.76 nM and 1.16 nM, the Ki ([5]; average ± S.E.M. of independent experiments, 37°C, pH 7.5, read-out: Ki, Henderson plot, average) was 0.87 ± 0.07 nM and the Ki ([5]; average ± S.E.M. of independent experiments, read-out: Ki, Morrison equation, average) was 0.87 nM. For the same compound, the Ki (thermolysin [6]) was 20 nM, the IC50 (auerolysin) was 500 ± 40 nM and the Ki (auerolysin; Ki app from the slope of the Henderson plot, 3.6 nM enzyme, r2 = 0.84, N = 16) was 500 ± 60 nM. For the same compound, the Ki (auerolysin; Ki from Henderson plot, from Ki app, 3.6 nM enzyme) was 450 ± 50 nM, the Ki (auerolysin; Ki from IC50 (dose response plot, Eq (1))) was 450 nM and the Ki (auerolysin; Ki, from dose response plot using Eq (1), one experiment) was 452 ± 35 nM. For the same compound, the “binding to auerolysin, times weaker than binding to thermolysin and pseudolysin” value (auerolysin; ratio of Ki values) was “about 25 times” and the IC50 (MMP-9) was […].

For `O=C(NO)[C@H]1[C@@H](O)[C@H](O)[C@H](O)CN1S(=O)(=O)c1ccc(Oc2ccccc2)cc1` [compound 1b], the Ki ([5]; Ki, Henderson plot, average, average ± S.E.M. of independent experiments, 37°C, pH 7.5) was 0.088 nM and 0.09 nM, the Ki ([5]; Ki, Henderson plot, individual experiment, Ki ± s.d. per experiment, [S] 5.0 or 10.0 μM) was 0.074 nM and 0.128 nM and 0.081 nM and 0.07 nM and 0.08 nM and the Ki ([5]; Ki, Morrison equation, average, average ± S.E.M. of independent experiments) was 0.16 ± 0.02 nM. For the same compound, the Ki ([5]; Ki, Morrison equation, individual experiment, Ki ± s.d. per experiment, [S] 5.0 μM) was 0.16 nM (2×) and 0.21 nM, the “interaction with MMP-14, times stronger than galardin” value ([5]; ratio of Ki values, compound 1b vs galardin) was 10 times and the Ki ([5]; read-out: Ki, Morrison equation, individual experiment) was 0.1 ± 0.06 nM. The “Inhibitory effect (Ki: N.I.)” value (thermolysin [7]) was “no inhibitory effect and N.I”, the “Inhibitory effect (Ki: N.I.)” value (auerolysin; N.I. = no inhibition up to 100 μM of inhibitor) was “no inhibitory effect; also recorded: N.I.^c” and the “interaction with MMP-9, times stronger than galardin” value [8] was 5 to 10 times. The “Inhibitory effect (Ki: N.I.)” value (pseudolysin [9]) was “no inhibitory effect and N.I” and the Ki (MMP-9) was 0.097 nM.

“pseudolysin (Pseudomonas aeruginosa PAO1)” gave a Km ([2]; other: low precision, Km far above highest usable substrate concentration (10 μM)) of 24 ± 8 µM.
